The text below walks through data of PubChem BioAssay (NCI).

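Exposure lasted 48 hours, with cells grown in 96-well plates and compounds tested at five concentrations. The concentration for full growth arrest is given as TGI.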

Test systems include SK-MEL-2 melanoma; NCI-H522 lung; SK-OV-3 ovarian; HL-60(TB) leukemia; HT29 colon; NCI/ADR-RES ovarian; DU-145 prostate; SF-268 CNS; T-47D breast; NCI-H460 lung; EKVX NSCLC; ACHN renal; UO-31 renal; OVCAR-8 ovarian; HCC-2998 colon; HOP-92 NSCLC; K-562 leukemia; NCI-H23 lung; SN12C renal.
What all share (experiment): NCI tumour cell line growth inhibition, 48 h

In the case of `C[C@@H]1C[C@](O)([C@@H](C)Cl)C(=O)O[C@@H]2CCN3CC=C(COC(=O)[C@]1(C)O)[C@H]23`, the TGI in the assay with SK-MEL-2 melanoma, with NCI-H522 lung, in the assay on SK-OV-3 ovarian, in the assay with HL-60(TB) leukemia, in the assay on HT29 colon and with NCI/ADR-RES ovarian was more than 100 µM each time. In addition, the TGI was more than 100 µM in the assay on DU-145 prostate; more than 100 µM with SF-268 CNS; more than 100 µM in the assay on T-47D breast; more than 10 µM with NCI-H460 lung; more than 100 µM in the assay on EKVX NSCLC; more than 10 µM in the assay with ACHN renal. Also, the TGI in the assay on UO-31 renal was more than 10 µM; in the assay with OVCAR-8 ovarian, more than 100 µM; with HCC-2998 colon, more than 100 µM; with HOP-92 NSCLC it was more than 100 µM; in the assay with K-562 leukemia it was more than 100 µM; in the assay with NCI-H23 lung, more than 10 µM.

Turning to `COc1ccc(C(OC(C)=O)C2C(=C(C#N)C#N)c3ccccc3C2=C(C#N)C#N)cc1` (stereo unspecified), the TGI with SK-MEL-2 melanoma is 83.8 µM; with NCI-H522 lung, more than 100 µM; in the assay with SK-OV-3 ovarian, 62.8 µM; in the assay with HL-60(TB) leukemia it was 41.9 µM; in the assay with HT29 colon it was 95.1 µM; in the assay with NCI/ADR-RES ovarian, more than 100 µM. Moreover, the TGI in the assay on DU-145 prostate, in the assay with SF-268 CNS, with T-47D breast, in the assay on NCI-H460 lung, in the assay on EKVX NSCLC and with ACHN renal was more than 100 µM each time. For the same compound, the TGI with UO-31 renal is 75.1 µM; with OVCAR-8 ovarian, more than 100 µM; in the assay with HCC-2998 colon, 59.9 µM; in the assay with HOP-92 NSCLC, more than 100 µM; with K-562 leukemia it was more than 100 µM; in the assay with NCI-H23 lung it was 85.7 µM.

Regarding `O=C(NCCCN(CCCCN(CCCNC(=O)C(F)(F)F)CCCc1ccccc1)CCCc1ccccc1)C(F)(F)F`, the TGI in the assay with SN12C renal worked out at 5.8 µM; in the assay on NCI-H522 lung it was 3.51 µM; in the assay with SK-OV-3 ovarian, 5.6 µM; in the assay on HL-60(TB) leukemia, 23.9 µM; with HT29 colon, 3.23 µM; in the assay on NCI/ADR-RES ovarian, 15.5 µM. The TGI in the assay on DU-145 prostate came to 3.99 µM; in the assay with SF-268 CNS it was 3.3 µM; in the assay on T-47D breast, 3.84 µM; with NCI-H460 lung, 3.27 µM; in the assay with EKVX NSCLC, 4.23 µM; with ACHN renal, 3.42 µM. The TGI in the assay on UO-31 renal was 2.52 µM; with OVCAR-8 ovarian, 3.77 µM; in the assay with HCC-2998 colon, 3.27 µM; in the assay with HOP-92 NSCLC, 4.63 µM; in the assay with K-562 leukemia it was more than 100 µM; with NCI-H23 lung, 25.3 µM.

As for `CC(C)(C)NC(=O)N1N=C(c2ccccc2)C1c1ccccc1` (stereo unspecified), the TGI is more than 100 µM in the assay with SN12C renal; 35.5 µM in the assay with NCI-H522 lung; more than 100 µM with SK-OV-3 ovarian; more than 100 µM in the assay with HL-60(TB) leukemia; 32.2 µM with HT29 colon; more than 100 µM in the assay with NCI/ADR-RES ovarian. Further, the TGI in the assay on DU-145 prostate, in the assay with SF-268 CNS, in the assay on T-47D breast, in the assay with NCI-H460 lung, in the assay with EKVX NSCLC and in the assay with ACHN renal was more than 100 µM in each case. For the same compound, the TGI in the assay on UO-31 renal is 63.1 µM; with OVCAR-8 ovarian, more than 100 µM; in the assay with HCC-2998 colon, more than 100 µM; in the assay with HOP-92 NSCLC it was 65 µM; in the assay on NCI-H23 lung, more than 100 µM.

Regarding `CCCCCC(/C=C/C1CCC(=O)C1CC#C[Si](C)(C)C)OCc1ccccc1` (stereo unspecified), the TGI is 35 µM in the assay with SK-MEL-2 melanoma; 39 µM in the assay with SN12C renal; 28.6 µM in the assay with NCI-H522 lung; more than 100 µM in the assay on SK-OV-3 ovarian; 31.1 µM in the assay with HT29 colon; 41.8 µM in the assay with NCI/ADR-RES ovarian. Moreover, the TGI is more than 87.5 µM with DU-145 prostate; 29.4 µM in the assay on SF-268 CNS; 85.1 µM in the assay with T-47D breast; 30.7 µM with NCI-H460 lung; 39.8 µM in the assay on EKVX NSCLC; 31.6 µM with ACHN renal. Also, the TGI was 34.3 µM with UO-31 renal; 31.1 µM in the assay on OVCAR-8 ovarian; 48.1 µM in the assay on HCC-2998 colon; 17.2 µM in the assay with HOP-92 NSCLC; 41.8 µM in the assay on K-562 leukemia; 73.6 µM in the assay with NCI-H23 lung.

`Cc1cc(OCc2nnc3n2N=C(c2cc(F)c(Cl)cc2Cl)/C(=C/c2ccc(Cl)cc2)S3)ccc1Cl`: the TGI with SK-MEL-2 melanoma is more than 100 µM; with NCI-H522 lung, 36.4 µM; in the assay on SK-OV-3 ovarian, more than 100 µM; in the assay on HL-60(TB) leukemia, 21.3 µM; in the assay on HT29 colon, 52.5 µM; in the assay on NCI/ADR-RES ovarian it was more than 100 µM. The TGI was 36.6 µM in the assay with DU-145 prostate; 51.4 µM with SF-268 CNS; more than 100 µM with T-47D breast; more than 100 µM with NCI-H460 lung; more than 100 µM in the assay with EKVX NSCLC; more than 100 µM in the assay with ACHN renal. In addition, the TGI in the assay on UO-31 renal was more than 100 µM; with OVCAR-8 ovarian, 39.7 µM; in the assay on HCC-2998 colon, 40.3 µM; in the assay with HOP-92 NSCLC it was 45.8 µM; with K-562 leukemia it was 56.2 µM; in the assay on NCI-H23 lung, 79.9 µM.

Consider `CC1(C)OC(=C(C#N)C#N)C(C#N)=C1/C=C/c1ccncc1`, for which the TGI in the assay on SK-MEL-2 melanoma came to 6.44 µM; in the assay with SN12C renal it was 5.75 µM; with NCI-H522 lung, 4.12 µM; in the assay with SK-OV-3 ovarian it was 16.8 µM; in the assay with HT29 colon it was 4.07 µM; in the assay with NCI/ADR-RES ovarian, 4.13 µM. For the same compound, the TGI came to 6.21 µM with DU-145 prostate; 6.5 µM in the assay on SF-268 CNS; 6.26 µM in the assay with T-47D breast; 22.4 µM in the assay with NCI-H460 lung; 5.46 µM with EKVX NSCLC; 3.39 µM with ACHN renal. Also, the TGI in the assay on UO-31 renal was determined as 8.34 µM; with OVCAR-8 ovarian, 3.29 µM; in the assay on HCC-2998 colon, 19.5 µM; in the assay on HOP-92 NSCLC it was 5.17 µM; in the assay on K-562 leukemia, 7.04 µM; in the assay with NCI-H23 lung it was 5.56 µM.

Regarding `CC(C)=C1C(=O)C[C@]2(C)C[C@H]3/C(=C(/C)CCC12)CC[C@@]3(C)O` (stereo partly specified), the TGI is more than 50 µM with SK-MEL-2 melanoma; more than 50 µM with SN12C renal; more than 50 µM in the assay on NCI-H522 lung; more than 50 µM in the assay on SK-OV-3 ovarian; 28.6 µM in the assay with HL-60(TB) leukemia; more than 50 µM in the assay with HT29 colon. Also, the TGI in the assay with NCI/ADR-RES ovarian, in the assay with DU-145 prostate, with SF-268 CNS, in the assay with T-47D breast, in the assay with EKVX NSCLC and with ACHN renal was more than 50 µM in each case. Moreover, the TGI in the assay on UO-31 renal, in the assay on OVCAR-8 ovarian, with HCC-2998 colon, in the assay with HOP-92 NSCLC, in the assay with K-562 leukemia and in the assay with NCI-H23 lung was more than 50 µM each time.

As for `O=C(O)c1cccnc1`, the TGI in the assay with SN12C renal, in the assay with NCI-H522 lung, in the assay on HL-60(TB) leukemia, in the assay with HT29 colon, in the assay with NCI/ADR-RES ovarian and with DU-145 prostate was more than 100 µM in each case. The TGI with SF-268 CNS, in the assay on T-47D breast, with NCI-H460 lung, in the assay with EKVX NSCLC, in the assay on ACHN renal and in the assay with UO-31 renal was more than 100 µM each time. Moreover, the TGI in the assay with OVCAR-8 ovarian, with HCC-2998 colon, in the assay on HOP-92 NSCLC, with K-562 leukemia and with NCI-H23 lung was more than 100 µM in each case.

Take `CCN(CC)C(=S)SS(=O)(=O)c1ccc(F)cc1`: the TGI was more than 100 µM in the assay with SK-MEL-2 melanoma; more than 100 µM in the assay on SN12C renal; 0.505 µM in the assay with NCI-H522 lung; more than 100 µM in the assay with SK-OV-3 ovarian; 53.9 µM in the assay with HT29 colon; more than 100 µM in the assay on NCI/ADR-RES ovarian. Besides, the TGI in the assay with DU-145 prostate, in the assay with SF-268 CNS, in the assay on T-47D breast, in the assay with NCI-H460 lung, in the assay with EKVX NSCLC and in the assay on ACHN renal was more than 100 µM in each case. Moreover, the TGI with UO-31 renal was 72.5 µM; with OVCAR-8 ovarian, more than 100 µM; in the assay with HCC-2998 colon, more than 100 µM; in the assay on HOP-92 NSCLC it was more than 100 µM; with K-562 leukemia it was more than 100 µM; with NCI-H23 lung it was more than 100 µM.

In the case of `COc1ccc(C(OCC2OC(n3cc(C)c(=O)[nH]c3=O)CC2n2cc(Cn3cc(Br)c(=O)[nH]c3=O)nn2)(c2ccccc2)c2ccccc2)cc1` (stereo unspecified), the TGI with SK-MEL-2 melanoma is more than 100 µM; in the assay on SN12C renal it was more than 100 µM; with NCI-H522 lung, more than 100 µM; in the assay with SK-OV-3 ovarian, more than 100 µM; in the assay with HL-60(TB) leukemia it was 5.09 µM; in the assay with HT29 colon, more than 100 µM. Also, the TGI in the assay with NCI/ADR-RES ovarian, in the assay with DU-145 prostate, in the assay on SF-268 CNS, with T-47D breast, in the assay on EKVX NSCLC and in the assay with ACHN renal was more than 100 µM each time. The TGI with UO-31 renal, in the assay on OVCAR-8 ovarian, in the assay with HCC-2998 colon, in the assay with HOP-92 NSCLC and in the assay with NCI-H23 lung was more than 100 µM throughout.

In the case of `O=c1cc(-c2ccccc2)[nH]c2c(S)cccc12`, the TGI with SN12C renal, with NCI-H522 lung, in the assay on SK-OV-3 ovarian, with HL-60(TB) leukemia, with HT29 colon and in the assay on NCI/ADR-RES ovarian was more than 100 µM throughout. The TGI in the assay on DU-145 prostate, with SF-268 CNS, with T-47D breast, with NCI-H460 lung, in the assay with ACHN renal and with OVCAR-8 ovarian was more than 100 µM in each case. For the same compound, the TGI in the assay on HCC-2998 colon, with HOP-92 NSCLC, in the assay on K-562 leukemia and in the assay on NCI-H23 lung was more than 100 µM each time.
